Data as given in ChEMBL document CHEMBL5107986, “Small molecule NS5B RdRp non-nucleoside inhibitors for the treatment of HCV infection: A medicinal chemistry perspective” (Eur J Med Chem, 2022).

Assays:
Type in all cases: functional, organism-based, Hepacivirus hominis
Hepatitis C virus [1] = assay: Antiviral activity against HCV GT1b assessed as inhibition of viral replication
Hepatitis C virus [2] = assay: Antiviral activity against intrinsic HCV GT1a assessed as reduction in viral replication
Hepatitis C virus [3] = assay: Antiviral activity against HCV GT1b C316Y assessed as reduction in viral replication
Hepatitis C virus [4] = assay: Antiviral activity against HCV GT1b assessed as reduction in viral replication
Hepatitis C virus [5] = assay: Antiviral activity against HCV GT1b 316N assessed as reduction in viral replication
Hepatitis C virus [6] = assay: Antiviral activity against intrinsic HCV GT2a assessed as reduction in viral replication

O=C1N/C(=N\c2nnc(-c3ccc(Cl)cc3)s2)S/C1=C\c1c(Cl)cccc1Cl
IC50 (Hepatitis C virus [1]): 5600 nM

CC(C)(C)C#Cc1cc(N(C(=O)[C@H]2CC[C@H](C)CC2)[C@H]2CC[C@](O)(CO[C@H]3CCOC3)CC2)c(C(=O)O)s1
EC50 (Hepatitis C virus [2]): 2.2 nM

CNC(=O)c1c(-c2ccc(F)cc2)oc2cc(N(C)S(C)(=O)=O)c(-c3ccc(OC)c(-c4nc5c(F)cccc5o4)c3)cc12
EC50 (Hepatitis C virus [3]): 9.2 nM
EC50 (Hepatitis C virus [4]): 3.1 nM

CNC(=O)c1c(-c2ccc(F)cc2)oc2cc(N(CCO)S(C)(=O)=O)c(C3CC3)cc12 [NESBUVIR]
EC50 (Hepatitis C virus [4]): 18 nM
EC50 (Hepatitis C virus [5]): 170 nM

COc1ccc2c(c1)C=C1Cn3c-2c(C2CCCCC2)c2ccc(cc23)C(=O)NS(=O)(=O)N(C)CCCCN(C)C1=O
IC50 (Hepatitis C virus [1]): 26 nM
EC50 (Hepatitis C virus [4]): 75 nM

O=C1N/C(=N\c2nnc(-c3ccc(F)cc3)s2)S/C1=C\c1c(Cl)cccc1Cl
IC50 (Hepatitis C virus [1]): 19800 nM

Cn1c(-c2ncc(Br)cn2)c(C2CCCC2)c2ccc(C(=O)NC3(c4nc5ccc(/C=C/C(=O)O)cc5[nH]4)CCC3)cc21
IC50 (Hepatitis C virus [1]): 50 nM
EC50 (Hepatitis C virus [4]): 11 nM

CNC(=O)c1c(-c2ccc(F)cc2)oc2cc(N(CCO)S(C)(=O)=O)c(-c3ccccc3)cc12
EC50 (Hepatitis C virus [4]): 62 nM

CNC(=O)c1c(-c2ccc(F)cc2)oc2cc(N(C)S(C)(=O)=O)c(-c3ccc(OC)cc3)cc12
EC50 (Hepatitis C virus [6]): 60 nM
EC50 (Hepatitis C virus [4]): 16 nM

CNC(=O)c1c(-c2ccc(F)cc2)oc2cc(N(C)S(C)(=O)=O)c(-c3cccc(CNS(=O)(=O)c4cccc(OC)c4)c3)cc12
EC50 (Hepatitis C virus [6]): 6 nM
EC50 (Hepatitis C virus [4]): 1 nM

CNC(=O)c1c(-c2ccc(F)cc2)oc2cc(N(Cc3ccc(B(O)O)c(F)c3)S(C)(=O)=O)c(C3CC3)cc12
EC50 (Hepatitis C virus [3]): 1.9 nM
EC50 (Hepatitis C virus [4]): 1.7 nM

CC1=CC[C@H](C(=O)N(c2cc(C#CC(C)(C)C)sc2C(=O)O)C(C)C)CC1
EC50 (Hepatitis C virus [2]): 2.2 nM

CC(C)(C)C#Cc1cc(N(C(=O)[C@H]2CC[C@H](C)CC2)[C@H]2CC[C@H](Oc3cccnc3)CC2)c(C(=O)O)s1
EC50 (Hepatitis C virus [2]): 3.6 nM

CNC(=O)c1c(-c2ccc(F)cc2)oc2cc(N(C)S(C)(=O)=O)c(-c3ccccc3)cc12
EC50 (Hepatitis C virus [4]): 120 nM

CC(C)(C)C#Cc1cc(N(C(=O)[C@H]2CC[C@H](C)CC2)[C@H]2CC[C@H](OC3CCOC3)CC2)c(C(=O)O)s1 (stereo partly specified)
EC50 (Hepatitis C virus [2]): 8.1 nM

CC(C)N(c1cc(C#CC(C)(C)C)sc1C(=O)O)C(=O)[C@H]1CC[C@H](C)CC1
EC50 (Hepatitis C virus [2]): 5.5 nM

CNC(=O)c1c(-c2ccc(F)cc2)oc2cc(N(C)S(C)(=O)=O)c(-c3ccc4c(n3)-c3cc5c(F)cccc5n3CO4)cc12 [MK-8876]
EC50 (Hepatitis C virus [6]): 2.7 nM
EC50 (Hepatitis C virus [3]): 7.3 nM
EC50 (Hepatitis C virus [4]): 2.2 nM

CC1=CC[C@H](C(=O)N(c2cc(C#CC(C)(C)C)sc2C(=O)O)[C@H]2CC[C@](O)(CO[C@H]3CCOC3)CC2)CC1 [RADALBUVIR]
EC50 (Hepatitis C virus [2]): 2.9 nM
EC50 (Hepatitis C virus [4]): 6 nM

CNC(=O)c1c(-c2ccc(F)cc2)oc2cc(N(c3cc(Cl)c4c(c3)COB4O)S(C)(=O)=O)c(C3CC3)cc12
EC50 (Hepatitis C virus [2]): 1.3 nM
EC50 (Hepatitis C virus [4]): 2.5 nM
EC50 (Hepatitis C virus [5]): 2.5 nM
